Where two headings read alike, the source gives them in different places.
How the values were obtained:
[1] = biological target: T1, HiBit-BRG1 fusion protein (Homo sapiens, UniProt P51532); assay: HiBiT-BRG1 cell-based degradation assay (Nano-Glo HiBiT lytic detection, 24 h); settings: for Dmax: read-out: BRG1 HiBit Degradation Maximum (%); for DC50: read-out: BRMG1 HiBit Degradation IC50
T1 construct: expressed in transfected cells
Protocol: Procedure: A stable HeLa cell line expressing HiBiT-BRM was generated. On day 0, 5000 cells were seeded in 40 μL of media into each well of 384-well cell culture plates. […] Subsequently plates were incubated for 24 h in a standard tissue culture incubator and equilibrated at room temperature for 15 minutes. Nano-GB HiBiT Lytic Detection System (Promega N3050) reagent was freshly prepared and 20 ul was added to each well. Upon addition of this LgBit-containing reagent, the HiBiT and LgBiT proteins associate to form the luminescent NanoBiT luciferase. The plates were shaken for 10 minutes at room temperature and the bioluminescence read using an EnVision plate reader (PerkinElmer).
For measurement of BRG1 degradation, a stable HeLa cell line expressing HiBit-BRG1 and LgBit was generated. The same protocol as above was then followed.
(§1) The degradation % was calculated using the following formula: % degradation=100%−100%×(Lumsample−LuMLC)/(LuMHC−LuMLC). DMSO treated cells are employed as High Control (HC) and 2 μM of a known BRM/BRG1 degrader standard treated cells are employed as Low Control (LC).

HiBit-BRM fusion protein = biological target: T2, HiBit-BRM fusion protein (Homo sapiens, UniProt P51531); assay: HiBiT-BRM cell-based degradation assay (Nano-Glo HiBiT lytic detection, 24 h); settings: HeLa cell line expressing HiBiT-BRM; for DC50: read-out: BRM HiBit Degradation IC50
T2 construct: expressed in transfected cells
Protocol: Procedure: A stable HeLa cell line expressing HiBiT-BRM was generated. On day 0, 5000 cells were seeded in 40 μL of media into each well of 384-well cell culture plates. On day 1, cells were treated with 120 nL DMSO or 120 nL of 3-fold serially DMSO-diluted compounds (10 points in duplicate with 30 μM as final top dose). Subsequently plates were incubated for 24 h in a standard tissue culture incubator and equilibrated at room temperature for 15 minutes. Nano-GB HiBiT Lytic Detection System (Promega N3050) reagent was freshly prepared and 20 ul was added to each well. Upon addition of this LgBit-containing reagent, the HiBiT and LgBiT proteins associate to form the luminescent NanoBiT luciferase. The plates were shaken for 10 minutes at room temperature and the bioluminescence read using an EnVision plate reader (PerkinElmer).
as §1

[2] = HeLa cell line expressing HiBit-BRG1 and LgBit

T2 sequence (P51531 whole entry, the tested form may be a part): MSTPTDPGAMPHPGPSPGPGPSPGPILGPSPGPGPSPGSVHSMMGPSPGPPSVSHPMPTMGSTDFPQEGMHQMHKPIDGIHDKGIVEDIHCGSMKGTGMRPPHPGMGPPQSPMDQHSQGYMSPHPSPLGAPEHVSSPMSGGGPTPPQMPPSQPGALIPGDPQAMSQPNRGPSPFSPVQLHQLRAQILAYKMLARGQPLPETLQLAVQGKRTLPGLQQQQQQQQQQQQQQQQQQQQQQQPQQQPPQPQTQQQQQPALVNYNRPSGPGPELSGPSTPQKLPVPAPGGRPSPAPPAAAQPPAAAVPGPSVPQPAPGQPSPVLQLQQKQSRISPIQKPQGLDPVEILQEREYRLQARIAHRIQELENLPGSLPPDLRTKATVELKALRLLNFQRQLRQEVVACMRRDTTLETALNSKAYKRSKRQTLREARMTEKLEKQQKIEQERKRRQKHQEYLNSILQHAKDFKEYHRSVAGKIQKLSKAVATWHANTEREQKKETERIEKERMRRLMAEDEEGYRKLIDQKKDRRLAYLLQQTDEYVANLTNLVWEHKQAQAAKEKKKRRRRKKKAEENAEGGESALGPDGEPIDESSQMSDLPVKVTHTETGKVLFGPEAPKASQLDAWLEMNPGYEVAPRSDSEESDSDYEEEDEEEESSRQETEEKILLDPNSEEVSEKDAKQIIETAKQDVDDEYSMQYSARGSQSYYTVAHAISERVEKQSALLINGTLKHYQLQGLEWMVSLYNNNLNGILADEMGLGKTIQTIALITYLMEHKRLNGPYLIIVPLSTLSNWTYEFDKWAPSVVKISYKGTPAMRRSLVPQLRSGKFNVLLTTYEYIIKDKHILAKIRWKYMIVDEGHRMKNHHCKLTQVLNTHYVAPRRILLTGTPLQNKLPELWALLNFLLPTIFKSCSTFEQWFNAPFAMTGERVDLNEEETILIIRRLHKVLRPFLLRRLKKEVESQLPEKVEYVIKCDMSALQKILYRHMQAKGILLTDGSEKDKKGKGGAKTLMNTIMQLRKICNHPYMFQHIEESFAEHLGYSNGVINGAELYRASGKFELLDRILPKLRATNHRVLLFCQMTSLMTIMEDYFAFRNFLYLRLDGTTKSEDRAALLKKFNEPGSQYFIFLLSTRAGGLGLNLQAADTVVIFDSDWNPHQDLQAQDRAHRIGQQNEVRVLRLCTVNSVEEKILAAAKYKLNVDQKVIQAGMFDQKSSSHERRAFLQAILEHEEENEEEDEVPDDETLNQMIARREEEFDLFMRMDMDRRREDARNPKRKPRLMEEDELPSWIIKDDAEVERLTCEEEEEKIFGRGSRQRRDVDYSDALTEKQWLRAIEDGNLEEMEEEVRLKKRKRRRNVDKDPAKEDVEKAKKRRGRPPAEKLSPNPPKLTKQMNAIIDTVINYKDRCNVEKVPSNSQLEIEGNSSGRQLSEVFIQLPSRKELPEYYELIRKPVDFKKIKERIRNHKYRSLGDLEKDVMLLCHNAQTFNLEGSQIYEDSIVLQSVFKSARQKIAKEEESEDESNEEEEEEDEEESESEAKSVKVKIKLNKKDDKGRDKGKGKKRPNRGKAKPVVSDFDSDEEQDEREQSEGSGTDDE
T1 sequence (P51532 whole entry, the tested form may be a part): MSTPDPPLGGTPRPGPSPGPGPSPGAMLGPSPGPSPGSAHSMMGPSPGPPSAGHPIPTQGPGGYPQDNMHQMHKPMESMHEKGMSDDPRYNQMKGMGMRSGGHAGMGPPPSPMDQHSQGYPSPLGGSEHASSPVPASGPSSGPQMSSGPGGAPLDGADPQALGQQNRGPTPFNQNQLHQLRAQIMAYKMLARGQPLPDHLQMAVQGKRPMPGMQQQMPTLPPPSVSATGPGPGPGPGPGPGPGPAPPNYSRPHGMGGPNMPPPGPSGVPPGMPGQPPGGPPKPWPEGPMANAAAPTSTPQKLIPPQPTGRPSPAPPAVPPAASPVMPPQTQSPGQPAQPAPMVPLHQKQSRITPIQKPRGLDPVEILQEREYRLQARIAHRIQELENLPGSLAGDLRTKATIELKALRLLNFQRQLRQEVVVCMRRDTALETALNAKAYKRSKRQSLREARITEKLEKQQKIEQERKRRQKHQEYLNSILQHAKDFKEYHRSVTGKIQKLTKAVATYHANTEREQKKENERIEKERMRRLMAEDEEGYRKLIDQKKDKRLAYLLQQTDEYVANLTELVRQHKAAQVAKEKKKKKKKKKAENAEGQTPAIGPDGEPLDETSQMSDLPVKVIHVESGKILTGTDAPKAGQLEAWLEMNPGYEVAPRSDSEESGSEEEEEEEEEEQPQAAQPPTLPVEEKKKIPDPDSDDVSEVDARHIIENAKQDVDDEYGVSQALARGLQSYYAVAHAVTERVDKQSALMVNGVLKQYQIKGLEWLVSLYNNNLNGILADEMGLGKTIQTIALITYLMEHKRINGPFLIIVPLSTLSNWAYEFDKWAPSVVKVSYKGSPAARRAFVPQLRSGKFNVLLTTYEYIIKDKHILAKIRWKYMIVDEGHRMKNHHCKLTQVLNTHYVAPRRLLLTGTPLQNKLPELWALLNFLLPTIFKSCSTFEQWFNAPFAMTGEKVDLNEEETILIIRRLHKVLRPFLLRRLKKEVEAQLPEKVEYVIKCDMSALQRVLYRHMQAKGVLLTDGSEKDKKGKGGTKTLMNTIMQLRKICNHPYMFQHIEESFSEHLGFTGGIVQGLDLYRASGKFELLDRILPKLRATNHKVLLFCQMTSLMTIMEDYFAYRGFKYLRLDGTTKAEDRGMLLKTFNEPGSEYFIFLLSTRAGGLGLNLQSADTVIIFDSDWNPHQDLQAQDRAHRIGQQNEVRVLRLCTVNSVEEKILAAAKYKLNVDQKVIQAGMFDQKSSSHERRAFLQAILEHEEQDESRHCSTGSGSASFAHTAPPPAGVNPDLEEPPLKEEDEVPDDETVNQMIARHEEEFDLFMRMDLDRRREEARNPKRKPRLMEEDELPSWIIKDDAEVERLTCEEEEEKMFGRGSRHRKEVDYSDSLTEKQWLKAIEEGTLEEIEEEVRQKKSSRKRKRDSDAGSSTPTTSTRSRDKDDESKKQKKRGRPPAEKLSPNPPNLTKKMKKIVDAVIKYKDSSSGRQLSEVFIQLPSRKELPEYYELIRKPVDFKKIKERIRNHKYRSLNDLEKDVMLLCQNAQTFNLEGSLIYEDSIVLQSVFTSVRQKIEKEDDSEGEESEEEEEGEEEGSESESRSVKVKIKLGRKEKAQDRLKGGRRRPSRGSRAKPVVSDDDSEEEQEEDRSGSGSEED

| Dmax [1, 2] [%] | DC50 [1, 2] [nM] | DC50 (HiBit-BRM fusion protein) [nM] | Dmax ([1]; HeLa) [%] | Compound | BRM HiBit Degradation Maximum (%) (HiBit-BRM fusion protein) |
| --- | --- | --- | --- | --- | --- |
| > 75 | > 10 | < 10 | – | Cc1ncsc1-c1ccc([C@H](C)NC(=O)[C@@H]2C[C@@H](O)CN2C(=O)[C@@H](c2cc(N3CCC(N4CC(c5cc6nnc(-c7ccccc7O)cc6n5C)C4)CC3)no2)C(C)C)cc1 [Compound 12, (2S,4R)-4-hydroxy-1-((R)-2-(3-(4-(3-(3-(2-hydroxyphenyl)-5-methyl-5H-pyrrolo[3,2-c]pyridazin-6-yl)azetidin-1-yl)piperidin-1-yl)isoxazol-5-yl)-3-methylbutanoyl)-N-((S)-1-(4-(4-methylthiazol-5-yl)phenyl)ethyl)pyrrolidine-2-carboxamide] | A (“A” indicates maximum degradation ≥75%) |
| > 50 | > 100 | < 10 | – | Cc1ncsc1-c1ccc([C@H](C)NC(=O)[C@@H]2C[C@@H](O)CN2C(=O)[C@@H](c2cc(N3CCC(C(=O)N4CC(c5cc6nnc(-c7ccccc7O)cc6n5C)C4)CC3)no2)C(C)C)cc1 [Compound 13, (2S,4R)-4-hydroxy-1-[(2R)-2-[3-(4-{3-[3-(2-hydroxyphenyl)-5-methylpyrrolo[3,2-c]pyridazin-6-yl]azetidine-1-carbonyl}piperidin-1-yl)-1,2-oxazol-5-yl]-3-methylbutanoyl]-N-[(1S)-1-[4-(4-methyl-1,3-thiazol-5-yl)phenyl]ethyl]pyrrolidine-2-carboxamide] | A (“A” indicates maximum degradation ≥75%) |
| > 50 | > 10 | > 10 | – | Cc1ncsc1-c1ccc([C@H](C)NC(=O)[C@@H]2C[C@@H](O)CN2C(=O)[C@@H](c2cc(OCCN3CC(c4cc5nnc(-c6ccccc6O)cc5n4C(F)F)C3)no2)C(C)C)cc1 [Compound 14, (2S,4R)-1-((R)-2-(3-(2-(3-(5-(difluoromethyl)-3-(2-hydroxyphenyl)-5H-pyrrolo[3,2-c]pyridazin-6-yl)azetidin-1-yl)ethoxy)isoxazol-5-yl)-3-methylbutanoyl)-4-hydroxy-N—((S)-1-(4-(4-methylthiazol-5-yl)phenyl)ethyl)pyrrolidine-2-carboxamide] | A (“A” indicates maximum degradation ≥75%) |
| < 50 | – | > 100 | – | Cc1ncsc1-c1ccc([C@H](C)NC(=O)[C@@H]2C[C@@H](O)CN2C(=O)[C@@H](c2cc(OCC(=O)N3CC(c4cc5nnc(-c6ccccc6O)cc5n4C)C3)no2)C(C)C)cc1 [Compound 15, (2S,4R)-4-hydroxy-1-((R)-2-(3-(2-(3-(3-(2-hydroxyphenyl)-5-methyl-5H-pyrrolo[3,2-c]pyridazin-6-yl)azetidin-1-yl)-2-oxoethoxy)isoxazol-5-yl)-3-methylbutanoyl)-N-((S)-1-(4-(4-methylthiazol-5-yl)phenyl)ethyl)pyrrolidine-2-carboxamide] | A (“A” indicates maximum degradation ≥75%) |
| < 50 | – | – | – | Cc1ncsc1-c1ccc([C@H](C)NC(=O)[C@@H]2C[C@@H](O)CN2C(=O)[C@@H](c2cc(OCCN3CC(c4cc5nnc(-c6ccccc6O)cc5n4C4COC4)C3)no2)C(C)C)cc1 [Compound 16, (2S,4R)-4-hydroxy-1-((R)-2-(3-(2-(3-(3-(2-hydroxyphenyl)-5-(oxetan-3-yl)-5H-pyrrolo[3,2-c]pyridazin-6-yl)azetidin-1-yl)ethoxy)isoxazol-5-yl)-3-methylbutanoyl)-N—((S)-1-(4-(4-methylthiazol-5-yl)phenyl)ethyl)pyrrolidine-2-carboxamide] | C (“C” indicates maximum degradation <50%) |
| > 75 | > 10 | < 10 | – | Cc1ncsc1-c1ccc([C@H](C)NC(=O)[C@@H]2C[C@@H](O)CN2C(=O)[C@@H](c2cc(OCCN3CCC(c4cc5nnc(-c6ccccc6O)cc5[nH]4)CC3)no2)C(C)C)cc1 [Compound 17, (2S,4R)-4-hydroxy-1-[(2R)-2-[3-(2-{4-[3-(2-hydroxyphenyl)-5H-pyrrolo[3,2-c]pyridazin-6-yl]piperidin-1-yl}ethoxy)-1,2-oxazol-5-yl]-3-methylbutanoyl]-N-[(1S)-1-[4-(4-methyl-1,3-thiazol-5-yl)phenyl]ethyl]pyrrolidine-2-carboxamide] | A (“A” indicates maximum degradation ≥75%) |
| < 50 | – | > 10 | – | Cc1ncsc1-c1ccc([C@H](C)NC(=O)[C@@H]2C[C@@H](O)CN2C(=O)[C@H](c2cc(-c3cnc(N4CCC(c5cc6nnc(-c7ccccc7O)cc6[nH]5)CC4)nc3)no2)C(C)C)cc1 [Compound 19, (2S,4R)-4-hydroxy-1-[(2S)-2-[3-(2-{4-[3-(2-hydroxyphenyl)-5H-pyrrolo[3,2-c]pyridazin-6-yl]piperidin-1-yl}pyrimidin-5-yl)-1,2-oxazol-5-yl]-3-methylbutanoyl]-N-[(1S)-1-[4-(4-methyl-1,3-thiazol-5-yl)phenyl]ethyl]pyrrolidine-2-carboxamide] | B (“B” indicates maximum degradation ≥50%) |
| > 75 | < 10 | < 10 | – | Cc1ncsc1-c1ccc([C@H](C)NC(=O)[C@@H]2C[C@@H](O)CN2C(=O)[C@@H](c2cc(OCCN3CCC(c4cc5nnc(-c6ccccc6O)cc5n4C)CC3)no2)C(C)C)cc1 [Compound 20, (2S,4R)-4-hydroxy-1-[(2R)-2-[3-(2-{4-[3-(2-hydroxyphenyl)-5-methylpyrrolo[3,2-c]pyridazin-6-yl]piperidin-1-yl}ethoxy)-1,2-oxazol-5-yl]-3-methylbutanoyl]-N-[(1S)-1-[4-(4-methyl-1,3-thiazol-5-yl)phenyl]ethyl]pyrrolidine-2-carboxamide] | A (“A” indicates maximum degradation ≥75%) |
| > 50 | < 10 | < 10 | – | Cc1ncsc1-c1ccc([C@H](C)NC(=O)[C@@H]2C[C@@H](O)CN2C(=O)[C@@H](c2cc(-c3cnc(N4CCC(c5cc6nnc(-c7ccccc7O)cc6n5C)CC4)nc3)no2)C(C)C)cc1 [Compound 21, (2S,4R)-4-hydroxy-1-((R)-2-(3-(2-(4-(3-(2-hydroxyphenyl)-5-methyl-5H-pyrrolo[3,2-c]pyridazin-6-yl)piperidin-1-yl)pyrimidin-5-yl)isoxazol-5-yl)-3-methylbutanoyl)-N—((S)-1-(4-(4-methylthiazol-5-yl)phenyl)ethyl) pyrrolidine-2-carboxamide] | A (“A” indicates maximum degradation ≥75%) |
| – | – | > 100 | < 50 | Cc1ncsc1-c1ccc([C@H](C)NC(=O)[C@@H]2C[C@@H](O)CN2C(=O)[C@H](c2cc(-c3cnc(N4CCC(c5cc6nnc(-c7ccccc7O)cc6n5C)CC4)nc3)no2)C(C)C)cc1 [Compound 22, (2S,4R)-4-hydroxy-1-((S)-2-(3-(2-(4-(3-(2-hydroxyphenyl)-5-methyl-5H-pyrrolo[3,2-c]pyridazin-6-yl)piperidin-1-yl)pyrimidin-5-yl)isoxazol-5-yl)-3-methylbutanoyl)-N—((S)-1-(4-(4-methylthiazol-5-yl)phenyl)ethyl)pyrrolidine-2-carboxamide] | B (“B” indicates maximum degradation ≥50%) |
| > 50 | > 10 | < 10 | – | CCn1c(C2CCN(c3ncc(-c4cc([C@H](C(=O)N5C[C@H](O)C[C@H]5C(=O)N[C@@H](C)c5ccc(-c6scnc6C)cc5)C(C)C)on4)cn3)CC2)cc2nnc(-c3ccccc3O)cc21 [Compound 23, (2S,4R)-1-[(2R)-2-[3-(2-{4-[5-ethyl-3-(2-hydroxyphenyl)pyrrolo[3,2-c]pyridazin-6-yl]piperidin-1-yl}pyrimidin-5-yl)-1,2-oxazol-5-yl]-3-methylbutanoyl]-4-hydroxy-N-[(1S)-1-[4-(4-methyl-1,3-thiazol-5-yl)phenyl]ethyl]pyrrolidine-2-carboxamide] | A (“A” indicates maximum degradation ≥75%) |
| < 50 | – | > 10 | – | CCn1c(C2CCN(c3ncc(-c4cc([C@@H](C(=O)N5C[C@H](O)C[C@H]5C(=O)N[C@@H](C)c5ccc(-c6scnc6C)cc5)C(C)C)on4)cn3)CC2)cc2nnc(-c3ccccc3O)cc21 [Compound 24, (2S,4R)-1-[(2S)-2-[3-(2-{4-[5-ethyl-3-(2-hydroxyphenyl)pyrrolo[3,2-c]pyridazin-6-yl]piperidin-1-yl}pyrimidin-5-yl)-1,2-oxazol-5-yl]-3-methylbutanoyl]-4-hydroxy-N-[(1S)-1-[4-(4-methyl-1,3-thiazol-5-yl)phenyl]ethyl]pyrrolidine-2-carboxamide] | B (“B” indicates maximum degradation ≥50%) |

— US20250302832A1, “PYRAZINE DERIVATIVES AND USES THEREOF” (FOGHORN THERAPEUTICS INC., priority 2022, published 2025)
